Measured values reported in patent publication US20240409530A1, “Disubstituted Pyrimidine Compounds for Ketohexokinase Inhibition” (Centennial Therapeutics, LLC, priority 2023, published 2024).

Tests used:
Human recombinant KHK-A = Human recombinant KHK-A (Homo sapiens (Human), UniProt P50053); test: KHK inhibition assay, recombinant isozyme (coupled pyruvate kinase/LDH, NADH absorbance 340 nm); assay type: biochemical; settings: recombinant isozyme 6 nM, fructose 2 mM, ATP 0.1 mM
Description: (§1) Determination of Human and Rat recombinant KHK-A and KHK-C isozyme IC50 Values
(§2) An assay reagent cocktail was prepared by combining NADH, water, TEA, KCl, MgCl2, PEP, ATP, DTT, coupling enzymes (pyruvate kinase and lactate dehydrogenase, LDH) to final concentrations as shown in Table B.
(§3) To this was added the relevant KHK isozyme to a final concentration of 6 nM. Aliquots of each inhibitor compound were diluted via 5-fold serial dilutions to produce final concentrations ranging from 1000 nM to 0.064 nM. The inhibitor aliquots were added to the assay reagent cocktail containing KHK with fructose (at a concentration of 2 mM) in a 96-well plate. The absorbance at 340 nm was measured via spectrophotometry and inhibition was analyzed using non-linear regression.

Human recombinant KHK-C = Human recombinant KHK-C (Homo sapiens (Human), UniProt P50053); test: as above; assay type: biochemical; settings: recombinant isozyme 6 nM, fructose 2 mM, ATP 0.1 mM
Human recombinant KHK-C, sequence (P50053 whole entry): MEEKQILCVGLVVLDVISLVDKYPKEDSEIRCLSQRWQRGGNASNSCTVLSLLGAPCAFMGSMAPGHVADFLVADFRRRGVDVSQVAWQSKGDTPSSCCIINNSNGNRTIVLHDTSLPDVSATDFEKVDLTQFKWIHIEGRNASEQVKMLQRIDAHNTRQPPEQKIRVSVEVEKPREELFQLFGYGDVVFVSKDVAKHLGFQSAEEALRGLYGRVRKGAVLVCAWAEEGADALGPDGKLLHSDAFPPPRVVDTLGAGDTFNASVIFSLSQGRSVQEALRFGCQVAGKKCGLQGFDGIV
Description: as §1, §2, §3

Rat recombinant KHK-A = Rat recombinant KHK-A (Rattus norvegicus (Rat), UniProt Q02974); test: as above; assay type: biochemical; settings: recombinant isozyme 6 nM, fructose 2 mM, ATP 0.1 mM
Rat recombinant KHK-A, sequence (Q02974 other isoform, or with tags, fused parts or gaps): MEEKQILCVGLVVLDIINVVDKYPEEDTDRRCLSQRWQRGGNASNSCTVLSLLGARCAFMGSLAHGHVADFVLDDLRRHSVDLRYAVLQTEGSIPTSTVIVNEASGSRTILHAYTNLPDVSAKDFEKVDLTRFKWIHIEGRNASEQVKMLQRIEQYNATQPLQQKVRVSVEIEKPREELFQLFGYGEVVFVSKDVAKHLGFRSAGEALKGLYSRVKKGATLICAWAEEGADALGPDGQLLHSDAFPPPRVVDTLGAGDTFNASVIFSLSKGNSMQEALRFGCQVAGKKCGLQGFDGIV
Description: as §1, §2, §3

Rat recombinant KHK-C = Rat recombinant KHK-C (Rattus norvegicus (Rat), UniProt Q02974); test: as above; assay type: biochemical; settings: recombinant isozyme 6 nM, fructose 2 mM, ATP 0.1 mM
Rat recombinant KHK-C, sequence (Q02974 whole entry): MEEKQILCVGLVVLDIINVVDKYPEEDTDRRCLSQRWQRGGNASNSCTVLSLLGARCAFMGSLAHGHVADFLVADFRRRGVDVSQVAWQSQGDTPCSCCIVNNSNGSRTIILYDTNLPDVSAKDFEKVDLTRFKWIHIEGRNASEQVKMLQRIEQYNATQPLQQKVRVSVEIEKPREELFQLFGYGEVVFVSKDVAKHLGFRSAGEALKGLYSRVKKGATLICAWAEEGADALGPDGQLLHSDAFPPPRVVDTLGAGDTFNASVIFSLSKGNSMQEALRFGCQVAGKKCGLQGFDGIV
Description: as §1, §2, §3

human KHK in HepG2 Cells = human KHK in HepG2 Cells (Homo sapiens (Human), UniProt P50053); test: Cell-based potency assay (HepG2 assay), F1P by LC/MS; settings: fructose 20 mM, 20 min, F1P produced
human KHK in HepG2 Cells, sequence (P50053 whole entry): as the sequence (P50053 whole entry) above
Description: Testing inhibition effect of compounds against human KHK in HepG2 Cells
(§4) HepG2 cells were grown in RPMI1640 supplemented media on 100 mm plates to near confluency (about 5-8×10^6 cells). The growth media was aspirated and 4 mL trypsin solution (0.25% (w/v)+0.25% (w/v) EDTA) was added, followed by incubation at 37° C. for 5-10 mins. The cells were pelleted and resuspended in 2 mL complete media.
The cells were then placed in a 96 well plate at 20,000-50,000 cells per well and grown for 20-28 hours at 37° C. to allow adherence.
Inhibitor compounds were diluted in DMSO to 50 μM, then serially diluted with MEM media (ThermoFisher). Final inhibitor concentration ranged from 1000 nM to 0.064 nM (5-fold dilution series).
The RPMI medium was removed from the plate of confluent cells. The plate was then incubated for 35 min at 37°, after which were added 0.1 mL of the diluted inhibitor compounds in MEM with fructose, 0.1 mL of MEM media without inhibitor compound or fructose, or trypsin; yielding a final concentration of fructose at 20 mM. The plate was subsequently incubated for 20 min at 37°, then placed on ice to stop the reactions.
Next, 200 μL of cold 80% (v/v) methanol:water was added to all wells, except the controls used to enumerate cell count. The plate was vortexed and cell debris removed by centrifugation. To measure F1P produced, the resulting supernatant fraction was analyzed by LC/MS.

[1] = target: human KHK-C in engineered HepG2 cells (Homo sapiens (Human), UniProt P50053); test: Cell-based potency assay (KHK-C-overexpressing HepG2 assay), F1P by LC/MS; settings: fructose 30 mM, 5 min, F1P produced, geomean
human KHK-C in engineered HepG2 cells, sequence (P50053 whole entry, stated change not applied): as the sequence (P50053 whole entry) above
Description: Testing inhibition effect of compounds against human KHK-C in engineered HepG2 cells.
Engineered HepG2 cells were generated using methods known to those of skill in the art. Briefly, HepG2 cells were incubated with lentivirus carrying a transgene encoding human KHK-C, and grown under antibiotic selection.
as §4, with “KHK-C-overexpressing HepG2” for “HepG2”, “T-182 cm^2 flask” for “100 mm plates”, “25-40×10^6” for “5-8×10^6”, “aspirated, the flask was washed with 10 mL PBS,” for “aspirated”, “3-5” for “5-10”
The cells were then placed in a 96-well plate at 20,000-40,000 cells per well and grown for 20-28 hours at 37° C. to allow adherence.
Inhibitor compounds were diluted in DMSO to 50 μM, then serially diluted with MEM media (ThermoFisher). Final inhibitor concentration ranged from 5000 nM to 0.32 nM.
The RPMI medium was removed from the plate of confluent cells. The plate was then incubated for 35 min at 37° C. with 0.1 mL of the diluted inhibitor compounds in MEM. After, an additional 0.1 mL of the diluted inhibitor compounds in MEM with fructose, or 0.1 mL of MEM media without inhibitor compound and/or fructose; yielding a final concentration of fructose at 30 mM was added. The plate was subsequently incubated for 5 min at 37° C., then placed on ice to stop the reactions.
Next 200 μL of cold 80% (v/v) methanol:water was added to al wells and placed in the −80° C. freezer for 1 hour with an adhesive seal. The plate was vortexed and cell debris removed by centrifugation. To measure F1P produced, the resulting supernatant fraction was analyzed by LC/MS.

Human recombinant KHK-A, sequence (P50053 other isoform, or with tags, fused parts or gaps): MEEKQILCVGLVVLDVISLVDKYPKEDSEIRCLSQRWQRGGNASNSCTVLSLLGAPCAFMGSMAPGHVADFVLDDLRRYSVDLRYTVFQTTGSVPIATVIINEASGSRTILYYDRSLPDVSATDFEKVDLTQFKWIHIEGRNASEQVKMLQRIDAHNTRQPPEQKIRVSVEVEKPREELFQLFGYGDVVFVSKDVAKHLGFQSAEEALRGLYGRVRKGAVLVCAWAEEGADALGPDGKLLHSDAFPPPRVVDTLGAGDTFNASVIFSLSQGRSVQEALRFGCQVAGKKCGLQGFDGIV

IC50 (Human recombinant KHK-A) [nM] | IC50 (Human recombinant KHK-C) [nM] | IC50 (Rat recombinant KHK-A) [nM] | IC50 (Rat recombinant KHK-C) [nM] | IC50 (human KHK in HepG2 Cells) [nM] | IC50 [1] [nM] | SMILES
4.1 | 1.05 | 1.3 | 3.3 | 1 | 33.5 | Cc1c(-c2cnn(C3CN(C)C3)c2)nc(N2C[C@@H](O)[C@@H]2C)nc1C(F)(F)F [Compound A12, (2S,3R)-2-methyl-1-{5-methyl-4-[1-(1-methyl-3-azetidinyl)-4-pyrazolyl]-6-(trifluoromethyl)-2-pyrimidinyl}-3-azetidinol]
2.05 | 1.5 | 1.46 | 3.33 | 2 | 36.5 | Cc1c(-c2cnn(C3CN(C)C3)c2)nc(N2C[C@@H](O)[C@@H]2C)nc1C(F)F [Compound A21, (2S,3R)-1-{6-(difluoromethyl)-5-methyl-4-[1-(1-methyl-3-azetidinyl)-4-pyrazolyl]-2-pyrimidinyl}-2-methyl-3-azetidinol]
1.9 | 4.85 | 4.1 | 7.7 | 9 | 82 | Cc1c(-c2cnn(C3CNC3)c2)nc(N2C[C@@H](O)[C@@H]2C)nc1C(F)F [Compound A35, (2S,3R)-1-{4-[1-(3-azetidinyl)-4-pyrazolyl]-6-(difluoromethyl)-5-methyl-2-pyrimidinyl}-2-methyl-3-azetidinol]
